Here are results for 1 compound from ChEMBL document CHEMBL4616720 (J Med Chem, 2020).

Activity calls are given as the source filed them. The calls are words filed in the database; no cut-off is given here.

Series [1] in a line: Toxicity in BALB/c nude mouse xenografted with human HCT116 cells assessed as body weight loss at 25 to 50 mg/kg, ip administered every 3 days for 21 days measured on day 7 relative to control. It is filed as organism-based, HCT-116. Particulars: in vivo. Background: In xenograft studies the graft and the host belong to different species.
Series [2] can be described thus: Drug concentration in plasma of Sprague-Dawley rat at 2 mg/kg, iv measured after 5 mins by LC-MS/MS analysis. It is filed as ADME, organism-based.
Series [3] has as its target T1, Peptide deformylase, mitochondrial (Homo sapiens) (UniProt Q9HBH1).
T1 sequence (whole entry): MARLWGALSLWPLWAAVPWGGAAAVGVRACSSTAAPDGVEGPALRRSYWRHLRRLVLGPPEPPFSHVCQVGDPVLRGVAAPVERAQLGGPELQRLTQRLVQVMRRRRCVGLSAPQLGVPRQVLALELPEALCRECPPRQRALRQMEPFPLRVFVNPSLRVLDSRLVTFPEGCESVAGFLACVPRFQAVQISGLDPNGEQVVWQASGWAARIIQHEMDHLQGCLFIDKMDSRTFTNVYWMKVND
Kind of series: Inhibition of PDF in human A549 cells assessed as decrease in mtDNA encoded COX1 protein level measured after 48 hrs by Western blot analysis. The series is classed as cell-based. Background: Immunoblotting shows a protein as a band on a membrane.

The test system of series [4] is HCT-116. Kind of series: Antitumor activity against human HCT116 cells xenografted in BALB/c nude mouse assessed as tumor growth inhibition at 50 mg/kg, ip administered every 3 days for 21 days and measured every second day for 21 days during compound dosing by digital caliper method relative to control. The series is classed as functional. Conditions: HCT-116, ip, read-out: TGI.

The subject of series [5] is A549. Kind of series: Induction of apoptosis in human A549 cells assessed as early apoptotic cells at 40 uM measured after 48 hrs by Annexin V-FITC/propidium iodide staining based FACSClibur flow cytometry analysis (reference value: 0.40 %). The series is classed as functional. Background: A flow cytometer gives signals particle by particle.
A short description of series [6]: AUC (0 to infinity) in Sprague-Dawley rat at 20 mg/kg, po measured up to 24 hrs by LC-MS/MS analysis. It is filed as ADME, organism-based. On the set-up: dose 20 mg/kg, route oral, time infinity. Particulars: in vivo.
In series [7] the test system is A549. Description: Induction of apoptosis in human A549 cells assessed as late apoptotic cells at 40 uM measured after 48 hrs by Annexin V-FITC/propidium iodide staining based FACSClibur flow cytometry analysis (reference value: 3.63 %). It is filed as functional.
Series [8] deals with A549. Description: Induction of apoptosis in human A549 cells assessed as induction of caspase-3 activation at 40 uM using Ac-DEVD-pNA as substrate preincubated for 24 hrs followed by substrate addition and measured after 2 hrs by microplate reader assay. It is filed as functional, cell-based.
Series [9] deals with T2, Peptide deformylase, mitochondrial (Homo sapiens, UniProt Q9HBH1).
T2 sequence (Q9HBH1 whole entry): T1 sequence (whole entry)
Kind of series: Inhibition of human PDF expressed in Escherichia coli BL21 pLysS using formyl-Met-Ala-His-Ala peptide as substrate measured after 1 hr by fluorescamine-based fluorescence assay.

Series [10] can be described thus: Selectivity index, ratio of IC50 for human MCF10A cells assessed as reduction in cell growth measured after 48 hrs by CCK8 assay to IC50 for human MCF7 cells assessed as reduction in cell growth measured after 48 hrs by CCK8. It is filed as toxicity. Conditions: MCF10A cells versus MCF7 cells, read-out: Ratio IC50.
The nature of series [11]: Selectivity index, ratio of IC50 for human MCF10A cells assessed as reduction in cell growth measured after 48 hrs by CCK8 assay to IC50 for human SJSA1 cells assessed as reduction in cell growth measured after 48 hrs by CCK8. It is filed as toxicity. Particulars: MCF10A cells versus SJSA1 cells, read-out: Ratio IC50.
Another series deals with Histone deacetylase 1 (Homo sapiens, UniProt Q13547). Description: Inhibition of HDAC1 (unknown origin) at 10 uM using Boc-Lys(Ac)-pNA as substrate preincubated for 20 mins followed by substrate addition and further incubated for 90 mins by fluorescence assay relative to control.
A further series concerns SJSA-1. Kind of series: Antiproliferative activity against human SJSA1 cells assessed as reduction in cell growth measured after 48 hrs by CCK8 assay. It is filed as functional, cell-based. Particulars: SJSA-1, 48 h.
Series [12] in a line: Apparent volume of distribution at steady state in Sprague-Dawley rat at 2 mg/kg, iv measured up to 24 hrs by LC-MS/MS analysis. Particulars: in vivo, read-out: Vdss(app). The series is classed as ADME, organism-based.
A short description of series [13]: Toxicity in BALB/c nude mouse xenografted with human HCT116 cells assessed as adverse effect at 25 to 50 mg/kg, ip administered every 3 days for 21 days. Particulars: in vivo. It is filed as organism-based, HCT-116.
For series [14], the system named is HCT-116. Description: Antitumor activity against human HCT116 cells xenografted in BALB/c nude mouse assessed as tumor growth inhibition at 25 mg/kg, ip administered every 3 days for 21 days and measured every second day for 21 days during compound dosing by digital caliper method relative to control. The series is classed as functional. Conditions: HCT-116, ip, read-out: TGI.

A short description of series [15]: Terminal half life in Sprague-Dawley rat at 2 mg/kg, iv measured up to 24 hrs by LC-MS/MS analysis. The series is classed as ADME, organism-based. Particulars: in vivo, read-out: beta t1/2 (converted).
Another series has as its system HL-60. Kind of series: Antiproliferative activity against human HL60 cells assessed as reduction in cell growth measured after 48 hrs by CCK8 assay. It is filed as functional, cell-based. Conditions: HL-60, 48 h.
The test system of a further series is MCF7. Description: Antiproliferative activity against human MCF7 cells assessed as reduction in cell growth measured after 48 hrs by CCK8 assay. Particulars: MCF7, 48 h. It is filed as functional, cell-based.
The nature of series [16]: Selectivity index, ratio of IC50 for human MCF10A cells assessed as reduction in cell growth measured after 48 hrs by CCK8 assay to IC50 for human HL60 cells assessed as reduction in cell growth measured after 48 hrs by CCK8. The series is classed as toxicity. Particulars: MCF10A cells versus HL60 cells, read-out: Ratio IC50.

Chain of Histone deacetylase 1 (Q13547 whole entry): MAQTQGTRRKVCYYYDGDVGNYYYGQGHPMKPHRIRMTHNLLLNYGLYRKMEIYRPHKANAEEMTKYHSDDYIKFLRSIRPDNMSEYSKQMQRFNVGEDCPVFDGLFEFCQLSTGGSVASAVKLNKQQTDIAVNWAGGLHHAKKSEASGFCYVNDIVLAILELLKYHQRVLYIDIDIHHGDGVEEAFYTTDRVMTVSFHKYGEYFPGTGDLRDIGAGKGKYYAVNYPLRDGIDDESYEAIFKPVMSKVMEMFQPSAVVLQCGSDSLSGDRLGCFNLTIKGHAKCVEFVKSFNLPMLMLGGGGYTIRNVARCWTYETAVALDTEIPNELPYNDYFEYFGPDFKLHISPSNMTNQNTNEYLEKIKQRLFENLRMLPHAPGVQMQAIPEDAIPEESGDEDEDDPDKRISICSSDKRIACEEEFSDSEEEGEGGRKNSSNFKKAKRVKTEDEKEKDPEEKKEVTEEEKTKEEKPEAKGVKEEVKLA

As to `O=C(C[C@@H](CC1CCCC1)C(=O)N1CC2(CC2)C[C@H]1c1nc(-c2ccc(F)cc2C(F)(F)F)no1)NO`, the Activity in [1] is on record as 5%; in the series with A549 [5] it was 12.6%; in the series with A549 [7] it was 5.55%; in series [13] it was “Non-Toxic”. This compound yielded a concentration at 5 min in series [2] of 136 ng/mL. In addition, the inhibition – broadly, the change of the read-out against control, counted positive when it falls – in [3] is “Dose-dependent effect”; against Histone deacetylase 1, -0.35%. Further, the inhibition in vivo at 50 mg/kg in the series with HCT-116 [4] is 72.5%. The AUC (in general, the area under the concentration-time curve, a measure of exposure) in series [6] was 940 ng·h/mL. Besides, in the series on A549 [8], the result was inactive. Besides, the IC50 – broadly, the concentration needed to halve the response being measured – in [9] worked out at 4.11 nM; in the series on SJSA-1, 1940 nM; with HL-60, 2020 nM; in the series with MCF7 it was 4650 nM. Also, the selectivity ratio at 48 h in series [10], in series [11] and in series [16] was 9 throughout. Also, the Vd in series [12] was 5.26 L/kg. Moreover, the inhibition in vivo at 25 mg/kg in the series with HCT-116 [14] stood at 64%. Moreover, the half-life in series [15] was 3.7 h.
